Marks after values point to notes of the source that are not given here.
Tested on: male rats
Test: Plasma metabolite profiling (GC-MS, LC-MS, SPE-LC-MS) in male rats dosed once daily over 28 days (OECD 407)
Format: in vivo, rat
Conditions: high dose; for 3-Methoxytyrosine / 3-O-Methylsphingosine (d18:1) / 5-O-Methylsphingosine (d18:1) / Androstenedione / Arachidonic acid (C20:cis[5,8,11,14]4) / Behenic acid (C22:0) / Cholesterol / Cysteine / Dodecanol / Eicosanoic acid (C20:0) / Galactose, lipid fraction / Glycerol phosphate, lipid fraction / Histidine / Indole-3-lactic acid / Lignoceric acid (C24:0) / Nervonic acid (C24:cis[15]1) / Noradrenaline (Norepinephrine) / Phosphate, lipid fraction / Phosphatidylcholine (C18:0, C18:2) / Phosphatidylcholine (C18:0, C20:3) / Phosphatidylcholine (C18:0, C22:6) / Phosphatidylcholine (C18:0,C18:1) / Phytosphingosine / Stearic acid (C18:0) / Testosterone / Threonine / Tricosanoic acid (C23:0) / Tryptophan / alpha-Tocopherol / beta-Sitosterol / dihomo-gamma-Linolenic acid (C20:cis[8,11,14]3) / erythro-Sphingosine (d18:1) / myo-Inositol-2-phosphate, lipid fraction / threo-Sphingosine (d18:1): Table 11a; for 3-Hydroxybutyrate / 4-Hydroxy-3-methoxyphenylglycol (HMPG) / 18-Hydroxy-11-deoxycorticosterone / 21-Hydroxyprogesterone (11-Deoxycorticosterone) / Citrate / Coenzyme Q9 / Coenzyme Q10 / Corticosterone / Metanephrine / Palmitoleic acid (C16:cis[9]1) / Phosphatidylcholine (C16:0, C16:0) / Progesterone / trans-4-Hydroxyproline: Table 11b; for 3-Hydroxybutyrate, ratio versus control / 18-Hydroxy-11-deoxycorticosterone, ratio versus control / Ceramide (d18:1, C24:1), ratio versus control / Coenzyme Q10, ratio versus control / Corticosterone, ratio versus control / Metanephrine, ratio versus control / Tricosanoic acid (C23:0), ratio versus control / alpha-Tocopherol, ratio versus control / trans-4-Hydroxyproline, ratio versus control: male rats, plasma
Procedure, shortened: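 Metabolites were measured by GC-MS (derivatised) and reversed-phase LC-MS, with steroids by online SPE-LC-MS, in plasma drawn from fasted rats on days 7, 14 and 28 of once-daily dosing (5/sex/group). Values are ratios versus sex-matched untreated controls, normalized to pool samples, with Welch-test p-values.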

CC(=O)O[C@]1(C(C)=O)CC[C@H]2[C@@H]3C=C(Cl)C4=CC(=O)[C@@H]5C[C@@H]5[C@]4(C)[C@H]3CC[C@@]21C [Cyproteron Acetate]
3-Methoxytyrosine (m7): 1.37 * | 3-O-Methylsphingosine (d18:1) (m7): 1.73 * | 5-O-Methylsphingosine (d18:1) (m7): 1.83 * | Androstenedione (m7): 4.65^ | Arachidonic acid (C20:cis[5,8,11,14]4) (m7): 1.35 * | Behenic acid (C22:0) (m7): 1.38 * | Cholesterol (m7): 1.33 * | Cysteine (m7): 1.3 * | Dodecanol (m7): 1.26 * | Eicosanoic acid (C20:0) (m7): 1.06^ | Galactose, lipid fraction (m7): 1.37 * | Glycerol phosphate, lipid fraction (m7): 1.57 * | Histidine (m7): 1.39 * | Indole-3-lactic acid (m7): 1.13 * | Lignoceric acid (C24:0) (m7): 1.46 * | Nervonic acid (C24:cis[15]1) (m7): 1.69 * | Noradrenaline (Norepinephrine) (m7): 1.61 * | Phosphate, lipid fraction (m7): 1.32 * | Phosphatidylcholine (C18:0, C18:2) (m7): 1.04 * | Phosphatidylcholine (C18:0, C20:3) (m7): 1.03^ | Phosphatidylcholine (C18:0, C22:6) (m7): 1.31 * | Phosphatidylcholine (C18:0,C18:1) (m7): 1.09 * | Phytosphingosine (m7): 1.05^ | Stearic acid (C18:0) (m7): 1.44 * | Testosterone (m7): 3.32^ | Threonine (m7): 1.78 * | Tricosanoic acid (C23:0) (m7): 1.48 * | Tryptophan (m7): 1.1 * | alpha-Tocopherol (m7): 1.22 * | beta-Sitosterol (m7): 2.11 * | dihomo-gamma-Linolenic acid (C20:cis[8,11,14]3) (m7): 1.66 * | erythro-Sphingosine (d18:1) (m7): 1.68 * | myo-Inositol-2-phosphate, lipid fraction (m7): 1.65 * | threo-Sphingosine (d18:1) (m7): 1.39 * | 3-Hydroxybutyrate (m7): 0.58 * | 4-Hydroxy-3-methoxyphenylglycol (HMPG) (m7): 1.11^ | 18-Hydroxy-11-deoxycorticosterone (m7): 0.03 * | 21-Hydroxyprogesterone (11-Deoxycorticosterone) (m7): 0.3 * | Citrate (m7): 1.24^ | Coenzyme Q9 (m7): 0.58 * | Coenzyme Q10 (m7): 0.49 * | Corticosterone (m7): 0.04 * | Metanephrine (m7): 0.91^ | Palmitoleic acid (C16:cis[9]1) (m7): 0.88 * | Phosphatidylcholine (C16:0, C16:0) (m7): 0.78 * | Progesterone (m7): 0.4 * | trans-4-Hydroxyproline (m7): 0.53 * | 3-Methoxytyrosine (m14): 1.81 * | 3-O-Methylsphingosine (d18:1) (m14): 2.19 * | 5-O-Methylsphingosine (d18:1) (m14): 2.18 * | Androstenedione (m14): 3.8 * | Arachidonic acid (C20:cis[5,8,11,14]4) (m14): 2.03 * | Behenic acid (C22:0) (m14): 1.52 * | Cholesterol (m14): 1.63 * | Cysteine (m14): 1.28 * | Dodecanol (m14): 1.71 * | Eicosanoic acid (C20:0) (m14): 1.15 | Galactose, lipid fraction (m14): 2.57 * | Glycerol phosphate, lipid fraction (m14): 2.05 * | Histidine (m14): 1.17 | Indole-3-lactic acid (m14): 1.15 * | Lignoceric acid (C24:0) (m14): 1.78 * | Nervonic acid (C24:cis[15]1) (m14): 2.55 * | Noradrenaline (Norepinephrine) (m14): 1.22 | Phosphate, lipid fraction (m14): 1.8 * | Phosphatidylcholine (C18:0, C18:2) (m14): 1.04 | Phosphatidylcholine (C18:0, C20:3) (m14): 1.16 * | Phosphatidylcholine (C18:0, C22:6) (m14): 1.5 * | Phosphatidylcholine (C18:0,C18:1) (m14): 1.48 * | Phytosphingosine (m14): 1.23 * | Stearic acid (C18:0) (m14): 2.3 * | Testosterone (m14): 2.63 * | Threonine (m14): 2.58 * | Tricosanoic acid (C23:0) (m14): 1.3 * | Tryptophan (m14): 1.11 * | alpha-Tocopherol (m14): 1.32 * | beta-Sitosterol (m14): 2.16 * | dihomo-gamma-Linolenic acid (C20:cis[8,11,14]3) (m14): 2.78 * | erythro-Sphingosine (d18:1) (m14): 1.92 * | myo-Inositol-2-phosphate, lipid fraction (m14): 2.78 * | threo-Sphingosine (d18:1) (m14): 2 * | 3-Hydroxybutyrate (m14): 0.73 * | 4-Hydroxy-3-methoxyphenylglycol (HMPG) (m14): 0.99^ | 18-Hydroxy-11-deoxycorticosterone (m14): 0.01 * | 21-Hydroxyprogesterone (11-Deoxycorticosterone) (m14): 0.41 * | Citrate (m14): 0.73 * | Coenzyme Q9 (m14): 0.74 * | Coenzyme Q10 (m14): 0.86^ | Corticosterone (m14): 0.01 * | Metanephrine (m14): 0.66 * | Palmitoleic acid (C16:cis[9]1) (m14): 0.74 * | Phosphatidylcholine (C16:0, C16:0) (m14): 0.87 * | Progesterone (m14): 0.54 * | trans-4-Hydroxyproline (m14): 0.44 * | 3-Methoxytyrosine (m28): 2.05 * | 3-O-Methylsphingosine (d18:1) (m28): 2.98 * | 5-O-Methylsphingosine (d18:1) (m28): 2.54 * | Androstenedione (m28): 0.94^ | Arachidonic acid (C20:cis[5,8,11,14]4) (m28): 2.35 * | Behenic acid (C22:0) (m28): 1.57 * | Cholesterol (m28): 1.97 * | Cysteine (m28): 1.54 * | Dodecanol (m28): 1.52 * | Eicosanoic acid (C20:0) (m28): 1.71 * | Galactose, lipid fraction (m28): 1.68 * | Glycerol phosphate, lipid fraction (m28): 2.16 * | Histidine (m28): 1.37 * | Indole-3-lactic acid (m28): 1.15 * | Lignoceric acid (C24:0) (m28): 1.9 * | Nervonic acid (C24:cis[15]1) (m28): 2.83 * | Noradrenaline (Norepinephrine) (m28): 1.39 * | Phosphate, lipid fraction (m28): 1.86 * | Phosphatidylcholine (C18:0, C18:2) (m28): 1.03^ | Phosphatidylcholine (C18:0, C20:3) (m28): 1.18 * | Phosphatidylcholine (C18:0, C22:6) (m28): 1.67 * | Phosphatidylcholine (C18:0,C18:1) (m28): 1.55* | Phytosphingosine (m28): 1.68 * | Stearic acid (C18:0) (m28): 2.71 * | Testosterone (m28): 0.56^ | Threonine (m28): 1.73 * | Tricosanoic acid (C23:0) (m28): 1.39 * | Tryptophan (m28): 1.14 * | alpha-Tocopherol (m28): 1.44 * | beta-Sitosterol (m28): 2.6 * | dihomo-gamma-Linolenic acid (C20:cis[8,11,14]3) (m28): 4.01 * | erythro-Sphingosine (d18:1) (m28): 2.2 * | myo-Inositol-2-phosphate, lipid fraction (m28): 3.26 * | threo-Sphingosine (d18:1) (m28): 2.13 * | 3-Hydroxybutyrate (m28): 0.68 * | 4-Hydroxy-3-methoxyphenylglycol (HMPG) (m28): 0.82 * | 18-Hydroxy-11-deoxycorticosterone (m28): 0 * | 21-Hydroxyprogesterone (11-Deoxycorticosterone) (m28): 0.01 * | Citrate (m28): 0.81 | Coenzyme Q9 (m28): 0.59 * | Coenzyme Q10 (m28): 0.7 * | Corticosterone (m28): 0 * | Metanephrine (m28): 0.58 * | Palmitoleic acid (C16:cis[9]1) (m28): 1.42 * | Phosphatidylcholine (C16:0, C16:0) (m28): 0.79 * | Progesterone (m28): 0.03 * | trans-4-Hydroxyproline (m28): 0.52 * | 3-Hydroxybutyrate, ratio versus control (day 7): 0.58 * | 18-Hydroxy-11-deoxycorticosterone, ratio versus control (day 7): 0.08 * | Ceramide (d18:1, C24:1), ratio versus control (day 7): 1 | Coenzyme Q10, ratio versus control (day 7): 0.49 * | Corticosterone, ratio versus control (day 7): 0.04 * | Metanephrine, ratio versus control (day 7): 0.91 | Tricosanoic acid (C23:0), ratio versus control (day 7): 1.48 * | alpha-Tocopherol, ratio versus control (day 7): 1.22 * | trans-4-Hydroxyproline, ratio versus control (day 7): 0.53 * | 3-Hydroxybutyrate, ratio versus control (day 14): 0.73 * | 18-Hydroxy-11-deoxycorticosterone, ratio versus control (day 14): 0.08 * | Ceramide (d18:1, C24:1), ratio versus control (day 14): 1.47 * | Coenzyme Q10, ratio versus control (day 14): 0.86 | Corticosterone, ratio versus control (day 14): 0.01 * | Metanephrine, ratio versus control (day 14): 0.66 * | Tricosanoic acid (C23:0), ratio versus control (day 14): 1.3 * | alpha-Tocopherol, ratio versus control (day 14): 1.32 * | trans-4-Hydroxyproline, ratio versus control (day 14): 0.44 * | 3-Hydroxybutyrate, ratio versus control (day 28): 0.68 * | 18-Hydroxy-11-deoxycorticosterone, ratio versus control (day 28): 0.02 * | Ceramide (d18:1, C24:1), ratio versus control (day 28): 2.22 * | Coenzyme Q10, ratio versus control (day 28): 0.7 * | Corticosterone, ratio versus control (day 28): 0 * | Metanephrine, ratio versus control (day 28): 0.58 * | Tricosanoic acid (C23:0), ratio versus control (day 28): 1.39 * | alpha-Tocopherol, ratio versus control (day 28): 1.44 * | trans-4-Hydroxyproline, ratio versus control (day 28): 0.52 *

— patent US20150010928A1, “MEANS AND METHODS FOR ASSESSING AN ENDOCRINE DISEASE OR DISORDER” (priority 2012, published 2015)
